US12329822B2, “Antimicrobial tailored chitosan” (UNIVERSITÉ DE GENÈVE, priority 2019, dated 2025)

Key:
P. aeruginosa (PA01) = assay: Transmission electron microscopy (TEM) on P. aeruginosa; type: cell-based, Pseudomonas aeruginosa
Method: Method 1 for Example 2: Transmission Electron Microscopy (TEM) with A3-S—C1 on P. aeruginosa
Pseudomonas aeruginosa PAO1 in the exponential phase were washed with phosphate buffered saline (PBS) and treated with 5 μg/mL Polymyxin B, 40 μg/mL G3KL and 40 or 64 μg/mL […] in M63 minimal medium. Each time, 1 ml of the bacteria were centrifuged after 15, 30 and 60 min at 12′000 rpm for 3 min and fixed overnight with 2.5% glutaraldehyde (Agar Scientific, Stansted, Essex, UK) in 0.15 M HEPES (Fluka, Buchs, Switzerland) with an osmolarity of 670 mOsm and adjusted to a pH of 7.35. The next day, PAO1 were washed with 0.15 M HEPES three times for 5 min, post fixed with 1% OsO4 (SPI Supplies, West Chester, USA) in 0.1 M Na-cacodylate-buffer (Merck, Darmstadt, Germany) at 4° C. for 1 h. Thereafter, bacteria were washed in 0.1 M Na-cacodylate-buffer three times for 5 min and dehydrated in 70, 80, and 96% ethanol (Alcosuisse, Switzerland) for 15 min each at room temperature. Subsequently, they were immersed in 100% ethanol (Merck, Darmstadt, Germany) three times for 10 min, in acetone (Merck, Darmstadt, Germany) two times for 10 min, and finally in acetone-Epon (1:1) overnight at room temperature. The next day, bacteria were embedded in Epon (Fluka, Buchs, Switzerland) and hardened at 60° C. for 5 days. […]

P. aeruginosa = conditions: native peptide; cited from earlier work
E. coli = conditions: native peptide; cited from earlier work
C. albicans = conditions: native peptide; cited from earlier work
S. aureus = conditions: native peptide; cited from earlier work
M. tuberculosis = conditions: native peptide; cited from earlier work

| Substance | Effect on bacterial membranes (TEM imaging) (P. aeruginosa (PA01)) | Effect on P. aeruginosa (PA01) (P. aeruginosa (PA01); TEM, concentration 5 μg/mL) | MIC (P. aeruginosa) | MIC (E. coli) | MIC (C. albicans) | MIC (S. aureus) | MIC (M. tuberculosis) |
| --- | --- | --- | --- | --- | --- | --- | --- |
| Polymyxin B | attacks only the outer membrane of the bacteria | Attack on the outer membrane | – | – | – | – | – |
| OP-145: linear AMP IGKEFKRIVERIKRFLRELVRPLR (SEQ ID NO: 12) (AMP) | – | – | 9.2 to 18.3 µg/mL | 6.1 to 9.2 µg/mL | 18.3 µg/mL | – | – |
| IDR-1018: linear AMP VRLIVAVRIWRR (SEQ ID NO: 9) (AMP) | – | – | 19 µg/mL | – | – | 5 µg/mL | 16 µg/mL |
